Patent publication US20240165132A1, “METHODS AND MATERIALS FOR TREATING CANCER” (Mayo Foundation for Medical Education and Research, priority 2021, published 2024)
Like-named read-outs stand apart in the source and are kept apart here.

Assays:
Experiment in all cases: Senolytic drug screen, CellTiter-Glo viability
Assay type in all cases: cell-based, human
GBM12 = GBM12 (P3); for IC50: Homo sapiens, read-out: IC50 of A1331852
Procedure: (§1) Human patient-derived glioblastoma lines were utilized and were cultured according to established protocols. Tumor lines maintained as patient-derived xenografts (PDX) are from the National PDX resource. Such lines are designated as “GBM-6, 10, 12, 39, 76, 123, 164, or 196”. Implantation of patient-derived glioblastoma cells, serial passage of flank tumor xenografts, and short-term explant culturing were done as described elsewhere, with some lines maintained in serum-containing media, and some lines maintained in serum free media as noted in Table 2 (see, for example, Carlson et al., Current protocols in pharmacology. Chapter 14(14):Unit 14.16 (2011)). Some cell lines were maintained from time of harvest as in vitro cell lines rather than PDX lines, as described elsewhere (see, for example, Himes et al., Neuro-oncology. 22(7):967-978 (2020)). Such lines are designated as dBT114, dBT116, dBT120, dBT132 (dBT=differentiated brain tumor). Culture conditions were unchanged after induction of senescence.
(§2) After plating, cells were maintained in 10 cm culture dishes for 2-4 days until >50% confluent. Cells were then treated with TMZ for 7 days or radiation (cesium gamma radiator) with varying doses. Most experiments were performed after use of 15 Gy to induce senescence. Radiation and TMZ each caused death of a variable percentage of cells in the ensuing days. “Senescent” tumor cells used for experiments are designated by those that survive following TMZ or radiation treatments. Except for radiation doses of 4 Gy or below, no visible proliferation occurred within 1 month after treatment with TMZ or radiation. For initial screening of senolytic drugs, cells were maintained for at least 20 days after radiation or TMZ prior to re-plating cells into black walled optical 96-well plates (5000 cells/well) for doing drug treatment.
(§3) Human glioblastoma cells were exposed to 10, 15 or 20 Gy radiation as indicated above. All GBM lines tested (Table 2) yielded a subpopulation of surviving non-proliferative cells used for subsequent experiments, with the exception of GM43 which yielded insufficient surviving cells for senescence experiments. All senolytic drugs used in this study were dissolved in DMSO (Table 1). Control (0 nM) cells were treated with the same dose of DMSO as cells with the highest drug concentration. Unless specified otherwise, cells were maintained in drug-containing media for four days prior to evaluation of cell viability using ATP lite, CellTiter-Glo assay according to company protocol (Cat #G7570). For all experiments, luminescence values are normalized to the 0 nM control for that cell line and radiation dose. All dose response graphs are depicted standard error of the mean (SEM) of 3 technical replicates at each concentration. Representative data are shown for experiments performed in independent replicates.
(§4) Multiple linear regressions were used to assess the relationship of drug dose and treatment (e.g. control, radiation, TMZ) with cell inhibition within each cell line. For these models, cell inhibition was the outcome and drug dose, treatment, and the drug dose by treatment interaction were the independent predictors. If the drug dose by treatment interaction was significant (p<0.05), pairwise comparisons were made at each drug dose between treatment groups using a two-sample t-test. Statistical analysis was performed in Microsoft Excel. IC50 was calculated by nonlinear regression (Curve fit) of dose-response inhibition curve by using GraphPad prism 8.4.2.

GBM164 = GBM164 (P2); for IC50: Homo sapiens, read-out: IC50 of A1331852
Procedure: as §1, §2, §3, §4

GBM10 = GBM10 (P2); for IC50: Homo sapiens, read-out: IC50 of A1331852
Procedure: as §1, §2, §3, §4

GBM196 = GBM196 (P2); for IC50: Homo sapiens, read-out: IC50 of A1331852
Procedure: as §1, §2, §3, §4

dBT132 = dBT132 (P10); for IC50: Homo sapiens, read-out: IC50 of A1331852
Procedure: as §1, §2, §3, §4

GBM6 = GBM6 (P4); for IC50: Homo sapiens, read-out: IC50 of A1331852
Procedure: as §1, §2, §3, §4

GBM39 = conditions: for IC50: Homo sapiens
Procedure: as §1, §2, §3, §4

dBT114 = dBT114 (P11); for IC50: Homo sapiens, read-out: IC50 of A1331852
Procedure: as §1, §2, §3, §4

GBM123 = GBM123 (P3); for IC50: Homo sapiens, read-out: IC50 of A1331852
Procedure: as §1, §2, §3, §4

dBT116 = dBT116 (P8); for IC50: Homo sapiens, read-out: IC50 of A1331852
Procedure: as §1, §2, §3, §4

GBM76 = conditions: for IC50: Homo sapiens
Procedure: as §1, §2, §3, §4

dBT120 = dBT120 (P10); for IC50: Homo sapiens, read-out: IC50 of A1331852
Procedure: as §1, §2, §3, §4

`Cc1c(-c2ccc(N3CCc4cccc(C(=O)Nc5nc6ccccc6s5)c4C3)nc2C(=O)O)cnn1CC12CC3CC(CC(C3)C1)C2` [A1331852] was tested, and the “Relative sensitivity (RS)” value (GBM12; control vs 15Gy) was 11.31 ± 8.282, the IC50 (GBM12; 15Gy radiated) was 22.9 ± 7.61 nM and the IC50 (GBM12; non-radiated control) was 390 ± 70 nM. The “Relative sensitivity (RS)” value (GBM164; control vs 15Gy) was 3.824, the IC50 (GBM164; 15Gy radiated) was 77.7 nM and the IC50 (GBM164; non-radiated control) was 297 nM. The “Relative sensitivity (RS)” value (GBM10; control vs 15Gy) was 16.19, the IC50 (GBM10; 15Gy radiated) was 2470 nM and the IC50 (GBM10; non-radiated control) was 40000 nM. For the same molecule, the “Relative sensitivity (RS)” value (GBM196; control vs 15Gy) was 10.72, the IC50 (GBM196; 15Gy radiated) was 2550 nM and the IC50 (GBM196; non-radiated control) was 27300 nM. It also gave an IC50 (dBT132; 96 h, non-radiated control, 4 days drug) of 18200 nM, an IC50 (dBT132; 10Gy radiated) of 4310 nM and an IC50 (dBT132; 20Gy radiated) of 2930 nM. The “Relative sensitivity (RS)” value (dBT132; control vs 10Gy) was 4.214, the “Relative sensitivity (RS)” value (dBT132; control vs 20Gy) was 6.192 and the “Relative sensitivity (RS)” value (GBM6; control vs 10Gy) was 26.58. For the same molecule, the “Relative sensitivity (RS)” value (GBM6; control vs 15Gy) was 26.58, the “Relative sensitivity (RS)” value (GBM6; control vs 20Gy) was 16.72 and the IC50 (GBM6; 10Gy radiated) was 532 nM. The IC50 (GBM6; 15Gy radiated) was 532 nM, the IC50 (GBM6; 20Gy radiated) was 845 nM and the IC50 (GBM6; non-radiated control) was 14100 nM. For the same molecule, the “Relative sensitivity (RS)” value (GBM39; GBM39 (P2-3), control vs 15Gy) was 513.8149 ± 711.64, the “Relative sensitivity (RS)” value (GBM39; GBM39 (P2-3), control vs TMZ) was 41.02 ± 2.182 and the “Relative sensitivity (RS)” value (GBM39; GBM39 (P3), control vs 20Gy) was 16.66 ± 11.88. For the same molecule, the “IC50 in radiated vs non-radiated cells” value (GBM39; GBM39, 15 Gy vs 0 Gy, 21 days after radiation, 4 days drug, p<0.0001) was “lower IC50 in radiated cells”, the IC50 (GBM39; GBM39, read-out: IC50 of A1331852, 15Gy, GBM39 (P2-3), 15Gy radiated) was 80.5 ± 93 nM and the IC50 (GBM39; GBM39, read-out: IC50 of A1331852, 20Gy, GBM39 (P3), 20Gy radiated) was 71 ± 10.3 nM. The IC50 (GBM39; GBM39, read-out: IC50 of A1331852, Control, GBM39 (P2-3), control of 15Gy series) was 108000 ± 152000 nM, the IC50 (GBM39; GBM39, read-out: IC50 of A1331852, Control, GBM39 (P2-3), control of TMZ series) was 1720 ± 2180 nM and the IC50 (GBM39; GBM39, read-out: IC50 of A1331852, Control, GBM39 (P3), control of 20Gy series) was 1300 ± 1010 nM. The IC50 (dBT114; 15Gy radiated) was 338 ± 72 nM, the IC50 (dBT114; non-radiated control) was 6320 ± 1090 nM and the “Relative sensitivity (RS)” value (dBT114; control vs 15Gy) was 20.28 ± 7.55. The “Relative sensitivity (RS)” value (GBM123; control vs 15Gy) was 2.457, the IC50 (GBM123; 15Gy radiated) was 9360 nM and the IC50 (GBM123; non-radiated control) was 23000 nM. The IC50 (dBT116; 20Gy radiated) was 63.5 nM, the IC50 (dBT116; non-radiated control) was 290 nM and the “Relative sensitivity (RS)” value (dBT116; control vs 20Gy) was 4.566. For the same molecule, the “Relative sensitivity (RS)” value (GBM76; GBM76 (P2), control vs 10Gy) was 31.77 ± 23.61, the “Relative sensitivity (RS)” value (GBM76; GBM76 (P2), control vs 15Gy) was 20.64 ± 5.633 and the “Relative sensitivity (RS)” value (GBM76; GBM76 (P2), control vs 20Gy) was 34.24 ± 7.988. For the same molecule, the “Relative sensitivity (RS)” value (GBM76; GBM76 (P3), control vs TMZ) was 28.21, the “IC50 in radiated vs non-radiated cells” value (GBM76; GBM76, 10, 15, 20 Gy vs non-radiated control, 4 days drug) was “lower IC50 radiated cells” and the IC50 (GBM76; read-out: IC50 of A1331852, 10Gy, GBM76 (P2), 10Gy radiated) was 1000 ± 367 nM. The IC50 (GBM76; read-out: IC50 of A1331852, 15Gy, GBM76 (P2), 15Gy radiated) was 1230 ± 416 nM, the IC50 (GBM76; read-out: IC50 of A1331852, 20Gy, GBM76 (P2), 20Gy radiated) was 679 ± 49.2 nM and the IC50 (GBM76; read-out: IC50 of A1331852, Control, GBM76 (P2), non-radiated control) was 23500 ± 6760 nM. For the same molecule, the IC50 (GBM76; read-out: IC50 of A1331852, Control, GBM76 (P3), control of TMZ series) was 1680 nM, the IC50 (GBM76; read-out: IC50 of A1331852, TMZ, GBM76 (P3), TMZ treated) was 59.7 nM and the IC50 (dBT120; 15Gy radiated) was 458 nM. The IC50 (dBT120; non-radiated control) was 5180 nM and the “Relative sensitivity (RS)” value (dBT120; control vs 15Gy) was 11.31.
